Data set [1] relates to S. aureus 29213 (WT GyrA and WT ParC). Kind of data set: microbe, parasite or virus in culture. The class given is cell-based. The note with it: for MIC: Staphylococcus aureus, WT GyrA and WT ParC, read-out: MIC against S. aureus 29213. As for the experimental part:
(§1) Susceptibility testing was performed in triplicate using the microdilution broth method as outlined by the Clinical and Laboratory Standards Institute CLSI^52. MH broth was used.

For a further data set, the system named is A. baumannii KB304. Kind of data set: MIC, microdilution broth. Format: cell-based. The note with it: Acinetobacter baumannii. The protocol: (§2) E. coli MG1655 and the ΔAcrB strain were obtained from Prof. Cari Vanderpool at UIUC.
as §1

The test system of another data set is A. baumannii KB349. Kind of data set: MIC, microdilution broth. The class given is cell-based. The note with it: Acinetobacter baumannii. As for the experimental part: as §2, §1
In data set [2] the test system is MRSA clinical isolate SAU.3021. Kind of data set: MIC, microdilution broth. The settings on record: Staphylococcus aureus, MRSA, read-out: MIC. Format: cell-based, S. aureus. The protocol: as §1
In data set [3] the test system is MRSA clinical isolate SAU.3026. Kind of data set: MIC, microdilution broth. The class given is cell-based, S. aureus. The settings on record: Staphylococcus aureus, MRSA, read-out: MIC. As for the experimental part: as §1
In data set [4] the test system is MRSA clinical isolate SAU.447. Description: MIC, microdilution broth. The class given is cell-based, S. aureus. The note with it: Staphylococcus aureus. As for the experimental part: as §1
The subject of data set [5] is VRE clinical isolate S206. Description: organism not typed. Format: cell-based, E. faecalis. The protocol: QRDR mutations were determined as described in the text using primers (primer sequences can be found in Table 7).
as §1

Data set [6] deals with VRE harboring the S83I mutation (GyrA). Description: microbe, parasite or virus in culture. The class given is cell-based. The note with it: Enterococcus.
Another data set deals with MRSA clinical isolates. Description: Panel of MRSA clinical isolates (FIG. 2A). The settings on record: n=21, in words. The class given is cell-based, S. aureus.
A further data set concerns VRE clinical isolates. Kind of data set: Panel of VRE clinical isolates (FIG. 2B). Format: cell-based, Enterococcus. The note with it: n=22, in words.
Another data set has as its target T1, WT E. coli DNA gyrase (Escherichia coli, UniProt P0AES4).
T1 construct: His tag (pTrcHisA vector, purified on Ni-NTA); made in house; host or cells: E. coli One Shot BL21 Star (DE3)
The class given is biochemical. The settings on record: in words.

Data set [7] relates to high level CIP resistant strains of S. aureus ATCC 29213 (S84L GyrA). Kind of data set: microbe, parasite or virus in culture. The class given is cell-based. The note with it: Staphylococcus aureus, ATCC29213.
A further data set is described as follows: physchem. The settings on record: organic solvent or mixture, thermodynamic from solid.
Data set [8] relates to normal (i.e. non-cancerous) cell lines. The note with it: cited from earlier work.
The subject of data set [9] is VRE clinical isolate S234. Kind of data set: organism not typed. The class given is cell-based, E. faecalis. The settings on record: read-out: MIC.
The next data set concerns Herring Sperm DNA. The class given is binding. The settings on record: 30 min, pH 7.5. As for the experimental part:
FIG. 12. In vitro toxicity. A) Hemolysis assay. Human red blood cells were co-incubated with compound. After incubation for 2 h at 37° C., the supernatant was analyzed for hemolysis. Each compound was tested either at 160 μg mL^−1 or at the highest concentration which its solubility allowed. Concentrations (μg mL^−1) are indicated in parenthesis. The negative control is DMSO and the positive control is water. Data shown is from three independent replicates±SEM. B) Ethidium bromide (EtBr) intercalation assay. Compounds were incubated with Herring Sperm DNA, ethidium bromide, and compound of interest for 30 minutes. The solutions were then analyzed for ethidium bromide fluorescence. Any decrease in percentage fluorescence is indicative of compound intercalation. Doxorubicin (DOX) was used as a positive control.
These assays were performed as previously described (Bair et al. J. Am. Chem. Soc. 132, 5469-5478, (2010)). The ability of DNM-2 to intercalate into DNA was measured by an ethidium bromide displacement assay. Herring Sperm DNA (34 μg/mL final) was premixed with buffer containing ethidium bromide (50 mM Tris base, 100 mM NaCl, 1 mM EDTA, 5 μM EtBr, pH=7.5). 95 μL of this solution was added to a 96 well plate containing 5 μL of DMSO solutions of compounds. […] Fluorescence was then read on a Gemini microplate reader (Molecular Devices, excitation=545 nm, emission=595 nm).

Data set [10] can be described thus: In vivo toxicity assessment, 10 days. On the set-up: species or system BALB/c mice. The settings on record: 50 mg kg^−1 oral once-a-day 10 days; in words. As for the experimental part: Toxicity was assessed as previously described^56. Specifically, heparinized whole blood was collected for assessment of total white blood cells, neutrophils, lymphocytes, hematocrit, platelets, creatinine, blood urea, nitrogen, albumin, alanine aminotransferase, alkaline phosphatase, and total bilirubin. Mice were euthanized by overdosing with Ketamine/Xylazine, and heart, lung, kidney, liver, spleen, gastrointestinal tract and brain were collected for histopathology. Tissue samples were fixed 24 hours in 10% neutral buffered formalin, processed, and paraffin embedded, sectioned (5 μm thickness) and stained with hematoxylin and eosin. All slides were systematically evaluated by a single board certified veterinary anatomic pathologist (SL) for evidence of acute or chronic inflammation and toxicity. All lesions were characterized, recorded, and scored for severity (minimal=1, mild=2, moderate=3, and severe=4).

The structures appear in SMILES notation. In brackets after ≈: the same amount, converted by molar mass.

`Cc1cc(=O)n(C)c2c3c4c(cc12)c(C)cc(=O)n4CO3` [DNM, deoxynybomycin]: the MIC was greater than 1 µg/mL in [1]; greater than 4 µg/mL in the data set on A. baumannii KB304; greater than 4 µg/mL in the data set with A. baumannii KB349; 0.031 µg/mL (≈ 0.11 µM) in [2]; 0.125 µg/mL (≈ 0.443 µM) in data set [3]; 0.063 µg/mL (≈ 0.223 µM) in data set [4]. Also, the MIC in data set [5] was 1 µg/mL (≈ 3.54 µM); in data set [6], 0.125 to 1 µg/mL (≈ 0.443 to 3.54 µM); in [7], 0.03 to 0.06 µg/mL (≈ 0.106 to 0.213 µM). The “activity against FQ-sensitive strain 29213” value in data set [1] (in words) is on record as “modest activity”. Besides, in the data set with MRSA clinical isolates, the “sensitivity of MRSA clinical isolates” value is “sensitive”. For the same compound, the “sensitivity of VRE clinical isolates” value in the data set on VRE clinical isolates was “sensitive”. Besides, the “inhibition of WT DNA gyrase” value on WT E. coli DNA gyrase is “poor inhibitors of WT DNA gyrase”. The solubility in “physchem” turned out to be 200 µM (≈ 56.5 µg/mL). The “toxicity to normal cell lines” value in data set [8] is “non-toxic”.

As to `CCn1c(=O)cc(C)c2cc3c(C)cc(=O)n4c3c(c21)OC4` [DNM-2], the MIC in data set [1] is 8 µg/mL (≈ 27 µM); against A. baumannii KB304, greater than 24 µg/mL; against A. baumannii KB349, greater than 24 µg/mL; in [2], 0.063 µg/mL (≈ 0.213 µM); in data set [3], 0.125 µg/mL (≈ 0.422 µM); in data set [4] it was 0.125 µg/mL (≈ 0.422 µM). For the same compound, the MIC was 0.25 µg/mL (≈ 0.844 µM) in [9], 2 µg/mL (≈ 6.75 µM) in [5] and 0.06 to 0.12 µg/mL (≈ 0.202 to 0.405 µM) in data set [7]. Further, the “sensitivity of MRSA clinical isolates” value with MRSA clinical isolates is recorded as “sensitive”. In addition, the “sensitivity of VRE clinical isolates” value in the data set with VRE clinical isolates is recorded as “sensitive”. Also, on WT E. coli DNA gyrase, the “inhibition of WT DNA gyrase” value is “poor inhibitors of WT DNA gyrase”. For the same compound, the “concentration without significant DNA intercalation” value with Herring Sperm DNA was greater than 30 µM. Besides, in data set [10], the “hematological and non-hematological toxicity” value is “No clinically significant evidence for myelosuppression, renal injury, or hepatic toxicity”. Further, the solubility in “physchem” came to 4000 µM (≈ 1190 µg/mL).
